{"source": "patent US20250186452A1", "about": "“NOVEL USE OF QUINOLINE COMPOUND” (TARAPEUTICS SCIENCE INC., priority 2022, published 2025)", "key": {"[1]": {"system": "MC38 cells", "test": "In vivo efficacy in MC38 cell tumor transplantation mouse model", "protocol": "In this example, the experimental effects of Compound 2 and the control compound PLX3397 (purchased from MedChem Express, China) in MC38 and 4T1 mouse models were tested respectively.\nThe experimental procedure was as follows: • (1) C57BL/6J male mice for use as MC38 transplanted tumor model and Balb/c male mice for use as 4T1 transplanted tumor model, which were 6 weeks old, were purchased from GemPharmatech Co., Ltd, Jiangsu. All the above mice were raised in an SPF laboratory, and the drinking water and padding had been sterilized by high pressure sterilization. All operations related to mice were performed under sterile conditions. • (2) On day 0, approximately 1×10^6 MC38 cells (purchased from ATCC) were injected subcutaneously into the left back of each of the C57BL/6J mice, and approximately 1×10^6 4T1 cells (purchased from ATCC) were injected subcutaneously into the left back of each of the Balb/c mice. • (3) For the MC38 mouse model, starting from the 6th day, the corresponding mice were orally administered with methylcellulose (HKI) (purchased from China National Pharmaceutical Group Corporation) solvent once a day (5 mice); Compound 2 at a dose of 50 mg/kg mouse weight once a day (5 mice); PLX3397 at a dose of 50 mg/kg mouse weight once a day (5 mice). For the 4T1 mouse model, starting from the 6th day, the corresponding mice were orally administered with 10% HS-15 (purchased from BASF, Germany) solvent (5 mice); Compound 2 at a dose of 50 mg/kg mouse weight once a day (5 mice); PLX3397 at a dose of 50 mg/kg mouse weight once a day (5 mice). • (4) Starting from the 6th day, the length/width of the subcutaneous tumor was measured with a vernier caliper every day, and the weight of the mice was recorded every day to determine the effects of Compound 2 and control compound PLX3397 on the weight of mice in different model mice. The results are shown in FIGS. 3 and 6. • (5) The growth trends of subcutaneous tumors in mice of different models were statistically analyzed. The tumor volume was calculated using the following method: length×width×width/2 mm^3. The results are shown in FIGS. 4 and 7. • (6) Isolation of tumor-infiltrating lymphocytes: Tumor tissue was first minced (tissue block less than 1 mm^3) with a surgical blade, resuspended in 6 ml of digestion solution (collagenase IV and 0.005% DNaseI enzyme, both purchased from Sigma, USA), and the mixture was transferred to a 15-ml centrifuge tube. The centrifuge tube was then placed in a shaker at 37° C. and digested with shaking at 220 r/min for 2 hours. The cells were sieved through a 200-mesh sieve and collected in a 50-ml centrifuge tube, and centrifuged at 1500 rpm for 10 minutes. The supernatant was then discarded, and 10 ml of DMEM medium (10% FBS) (purchased from GIBCO, USA) was added to the tube to terminate the digestion. The tube was placed in a centrifuge, and centrifuged at 1500 rpm for another 10 minutes. The supernatant was discarded. At the same time, Percoll separation solution (purchased from Millipore, USA) was prepared, and 90% Percoll separation working solution was prepared using 10×PBS. To a 15 ml centrifuge tube, 3-4 ml of 70% Percoll separation solution was added. The cells were resuspended in 4 ml of 40% Percoll separation solution, and the cell mixture was added to the 70% Percoll separation solution. The centrifuge tube was placed in a centrifuge and subjected to density gradient centrifugation at 25° C., 1260 g, for 30 minutes (speed up 5, speed down 0). After the centrifugation, the centrifuge tube was placed on a centrifuge tube rack, the middle leukocyte layer was aspirated with a pipette, and added to 10 ml of PBS, they were mixed well and placed in a centrifuge, and centrifuged at 1500 rpm. The cell supernatant was discarded after 10 min and the cells were resuspended in 5 ml of PBS, centrifuged at 1500 rpm for another 10 min, and the washing process was repeated once. The cells obtained were leukocytes in the tumor tissue. […]"}, "[2]": {"system": "RAW264.7 cells", "test": "Cell transformation experiment: CD86 RNA level in M2-induced RAW264.7 cells (qPCR)", "format": "cell-based, mouse", "protocol": "RAW264.7 cells (purchased from ATCC, USA) were sucked up and down with a pipette, and the cells were added to a centrifuge tube, placed in a centrifuge, and centrifuged at 800 rpm for 4 minutes.\nIn this experiment, an RNA extraction kit (purchased from Tiangen Biochemical Technology, China, catalog number: DP451) was used. RNA extraction was performed according to the instructions, and the concentration of RNA in the sample was detected using a NanoDrop nucleic acid concentration meter, and the RNA solution was diluted to the same concentration.\nIn this experiment, TakaRa One Step TB Green® PrimeScript™ PLUS RT-PCR Kit (purchased from TaKaRa Bio, catalog number: RR096A) was used, which contained the following components:\nThe procedure was as follows: • (1) The PCR primers were taken out and placed on ice. The primer sequences used were as follows: […]\n• (3) After the RT-PCR reaction reagents were prepared, they were mixed, and the mixture was dispensed into 8-Strip Tubes. 2 μL of RNA sample was added to the tube, the bottom of the tube was gently tapped to mix the solution, and the tube was centrifuged in a centrifuge for a while. • (4) The fluorescence quantitative PCR instrument was turned on. […] Roche analysis software LightCycler® 96 SW 1.1 was used to analyze the data, and the analyzed data was imported into Graphpad Prism7.0 for drawing."}}, "data": [{"smiles": "COc1cc2nccc(Oc3ccc(NC(=O)Cc4ccc(Cl)c(C(F)(F)F)c4)cc3)c2cc1OC", "note": "[Example 2, N-(4-((6,7-dimethoxyquinolin-4-yl)oxy)phenyl)-2-(4-chloro-3-(trifluoromethyl)phenyl)-acetamide]", "values": [{"measurement": "toxicity (mouse body weight)", "setting": "[1]; 50 mg/kg oral once a day, FIG. 3", "value": "no obvious toxicity"}, {"measurement": "inhibition effect of mouse tumors", "setting": "[1]; 50 mg/kg oral once a day, FIG. 4", "value": "good inhibition effect of mouse tumors"}, {"measurement": "inhibitory effect on mouse tumors compared with PLX3397", "setting": "[1]; 50 mg/kg oral once a day, as days of administration increased", "value": "superior to the effect of the control compound PLX3397"}, {"measurement": "proportion of M1 macrophages around the tumor versus solvent group", "setting": "[1]; 50 mg/kg oral, flow cytometry, FIG. 5", "value": "much higher than that in the solvent group"}, {"measurement": "proportion of M1 macrophages in the tumor microenvironment versus PLX3397 group", "setting": "[1]; same dose 50 mg/kg, FIG. 5", "value": "higher than that of the PLX3397 group"}, {"measurement": "effect on CD86 RNA level compared with positive controls", "setting": "[2]; 1 μM, same dose as PLX3397 and BLZ945, FIG. 2", "value": "better for Compound 2 at 1 μM than positive controls PLX3397 and BLZ945"}, {"measurement": "RNA level of CD86", "setting": "[2]; RAW264.7 induced to M2, treated 72 hours, serial dilutions, FIG. 2", "value": "increased in a dose-dependent manner"}]}]}
